Reference: patent publication US9382256B2, “Formulation of Syk inhibitors” (Gilead Connecticut, Inc., priority 2013, dated 2016)
Where a name gives a salt, the structure may show the parent alone.

How the values were obtained:
[1] = Intrinsic dissolution rate, rotating disk apparatus; assay type: physicochemical; conditions: 100 rpm, 37±0.5° C., 500 mL
Description: Intrinsic dissolution measurements were conducted using a rotating disk apparatus. Disks of Compound 1, Compound 2 and Compound 3 were separately prepared by directly compressing 100 mg of a powder of the respectively compounds in a die at a pressure of 2500 psi for 2 minutes using a hydraulic press (Carver Press, Fred Carver, NJ, USA). The exposed surface area for the resulting disks was 0.5 cm^2. A USP dissolution apparatus maintained at 37±0.5° C. was used for the dissolution study. Each dissolution vessel contained 500 mL of aqueous dissolution medium of 0.05 N HCl or pH 6.8 20 mM phosphate buffer with 1% cetyltrimetrylammonium bromide (CTAB). The disk holder (die) was half-immersed into the dissolution medium and rotated at 100 rpm. Samples were withdrawn at specified time intervals and the amount of compound dissolved was determined by HPLC.
The amount of compound dissolved at each time point was plotted versus time and the observed dissolution rate (mg/min) was obtained from the slope of the plot. The observed dissolution rate was divided by the surface area of the compound disk (0.5 cm^2) to obtain the intrinsic dissolution rate.

[2] = Physical stability of dry granulation formulation during processing and storage (XRPD); assay type: physicochemical; conditions: intragranular blend, milled granules, final blend (FIG. 4)

Intrinsic dissolution rate in pH 1.3 0.05N HCl with 0.9% NaCl [1]	form change by XRPD during processing [2]	Compound
0.00046 mg/min/cm^2		c1cn2cc(-c3ccc4cn[nH]c4c3)nc(Nc3ccc(N4CCOCC4)cc3)c2n1 [Compound 1]
	no form change was observed	c1cn2cc(-c3ccc4cn[nH]c4c3)nc(Nc3ccc(N4CCOCC4)cc3)c2n1 [bis-mesylate salt of Formula IA]
